Source: patent publication US20050164173A1, “Combined treatments and methods for treatment of mycoplasma and mycoplasma-like organism infections” (priority 2001, published 2005)

Test system: mycoplasma-like organisms
Experiment: tritiated uracil incorporation into mycoplasma-density fractions of CEM culture supernatant (sucrose density gradient)
Assay type: cell-based
Conditions: control peak about 1200 counts
From the text: As shown in FIGS. 1A-1C, superoxide dismutase (SOD) from a vegetal source has a significant decreasing effect on mycoplasma growth. SOD was included in the medium at the first of the five day experiment. The SOD was purified from melon plant material.

Substance: superoxide dismutase [SOD]
- peak of tritiated uracil incorporation (mycoplasma growth) (50 μg/ml SOD in medium from first of five days): around 500 counts
- peak of tritiated uracil incorporation (mycoplasma growth) (100 μg/ml SOD in medium from first of five days): around 250 counts
